Measured values taken from patent publication US8546401B2, “5,6-disubstituted oxindole-derivatives and use thereof for treating vasopressin-dependent diseases” (AbbVie Deutschland GmbH & Co. KG, priority 2007, dated 2013).

Assays:
[1] = biological target: T1, human vasopressin V1b receptor (Homo sapiens, UniProt P47901); experiment: Vasopressin V1b receptor binding assay; conditions: CHO-K1 membranes, 3H-AVP displacement
T1 construct: expressed in transfected cells; host or cells: CHO-K1 (cell line hV1b_3H2_CHO), membrane preparation
T1 sequence (P47901 1-424): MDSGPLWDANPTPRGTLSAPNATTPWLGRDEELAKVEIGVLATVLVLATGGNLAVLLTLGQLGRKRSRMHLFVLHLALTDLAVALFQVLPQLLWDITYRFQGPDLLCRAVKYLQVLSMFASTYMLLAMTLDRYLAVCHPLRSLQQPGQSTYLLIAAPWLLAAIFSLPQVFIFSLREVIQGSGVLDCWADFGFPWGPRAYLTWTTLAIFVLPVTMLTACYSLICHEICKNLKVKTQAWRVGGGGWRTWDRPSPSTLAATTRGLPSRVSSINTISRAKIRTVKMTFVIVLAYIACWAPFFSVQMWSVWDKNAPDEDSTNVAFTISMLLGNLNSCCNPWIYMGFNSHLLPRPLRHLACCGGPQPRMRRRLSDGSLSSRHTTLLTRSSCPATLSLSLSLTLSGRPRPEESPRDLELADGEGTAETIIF
Experimental: 1. Vasopressin V1b Receptor Binding Assay:
The test substances were dissolved in a concentration of 10^−2 M in DMSO and further diluted to 5×10^−4 M to 5×10^−3 M. These serial DMSO predilutions were diluted 1:10 with assay buffer. The substance concentration was further diluted 1:5 in the assay mixture (2% DMSO in the mixture).
(§1) CHO-K1 cells with stably expressed human vasopressin V1b receptor (clone 3H2) were harvested and homogenized in 50 mM Tris-HCl and in the presence of protease inhibitors (Roche complete Mini #1836170) using a Polytron homogenizer at intermediate setting for 2×10 seconds, and subsequently centrifuged at 40 000×g for 1 h. The membrane pellet was again homogenized and centrifuged as described and subsequently taken up in 50 mM Tris-HCl, pH 7.4, homogenized and stored in aliquots frozen in liquid nitrogen at −190° C.
(§2) The binding assay was carried out by the method based on that of Tahara et al. (Tahara A et al., Brit. J. Pharmacol. 125, 1463-1470 (1998)).
(§3) The incubation buffer was: 50 mM Tris, 10 mM MgCl2, 0.1% BSA, pH 7.4.
In the assay mixture (250 μl), membranes (50 μg/ml protein in incubation buffer) from CHO-K1 cells with stably expressed human V1b receptors (cell line hV1b—3H2_CHO) were incubated with 1.5 nM ^3H-AVP (8-Arg-vasopressin, PerkinElmer #18479) in incubation buffer (50 mM Tris, 10 mM MgCl2, 0.1% BSA, pH 7.4) (total binding) or additionally with increasing concentrations of test substance (displacement experiment). The nonspecific binding was determined with […] (Bachem #H1780). All determinations were carried out as triplicate determinations. After incubation (60 minutes at room temperature), the free radioligand was filtered off by vacuum filtration (Skatron cell harvester 7000) through Wathman GF/B glass fiber filter mats, and the filters were transferred into scintillation vials. The liquid scintillation measurement took place in a model 2000 or 2200CA Tricarb instrument (Packard). Conversion of the measured cpm into dpm was carried out with the aid of a standard quench series.
(§4) The binding parameters were calculated by nonlinear regression in SAS. The algorithms of the program operate in analogy to the LIGAND analysis program (Munson P J and Rodbard D, Analytical Biochem. 107, 220-239 (1980)). The Kd of ^3H-AVP for the recombinant human V1b receptors is 0.4 nM and was used to determine the Ki.

[2] = biological target: T2, human vasopressin V1a receptor (Homo sapiens, UniProt P37288); experiment: Vasopressin V1a receptor binding assay; conditions: selectivity quotient, human receptors
T2 construct: expressed in transfected cells; host or cells: CHO-K1 (cell line hV1a_5_CHO), membrane preparation
T2 sequence (P37288 whole entry): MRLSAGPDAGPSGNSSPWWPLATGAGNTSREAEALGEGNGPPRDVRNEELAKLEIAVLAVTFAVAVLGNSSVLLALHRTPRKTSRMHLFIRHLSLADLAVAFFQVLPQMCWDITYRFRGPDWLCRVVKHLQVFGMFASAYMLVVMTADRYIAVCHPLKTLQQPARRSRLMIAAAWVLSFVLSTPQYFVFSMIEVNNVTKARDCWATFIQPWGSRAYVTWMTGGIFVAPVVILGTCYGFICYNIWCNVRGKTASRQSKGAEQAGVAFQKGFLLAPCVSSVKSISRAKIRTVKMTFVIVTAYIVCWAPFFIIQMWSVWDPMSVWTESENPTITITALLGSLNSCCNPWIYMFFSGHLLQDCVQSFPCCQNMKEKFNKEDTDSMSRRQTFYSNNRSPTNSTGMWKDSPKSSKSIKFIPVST
Experimental: 2. Vasopressin V1a Receptor Binding Assay:
The test substances were dissolved in a concentration of 10^−2 M in DMSO. Further dilution of these DMSO solutions took place in incubation buffer (50 mM Tris, 10 mM MgCl2, 0.1% BSA, pH 7.4).
as §1, with “V1a” for “V1b”, “5)” for “3H2)”
as §2, §3
In the assay mixture (250 μl), membranes (20 μg/ml protein in incubation buffer) from CHO-K1 cells with stably expressed human V1a receptors (cell line hV1a—5_CHO) were incubated with 0.04 nM ^125I-AVP (8-Arg-vasopressin, NEX 128) in incubation buffer (50 mM Tris, 10 mM MgCl2, 0.1% BSA, pH 7.4) (total binding) or additionally with increasing concentrations of test substance (displacement experiment). The nonspecific binding was determined with 1 μM AVP (Bachem #H1780). Triplicate determinations were carried out.
After incubation (60 minutes at room temperature), the free radioligand was filtered off by vacuum filtration (Skatron cell harvester 7000) through Wathman GF/B glass fiber filter mats, and the filters were transferred into scintillation vials.
The liquid scintillation measurement took place in a model 2000 or 2200CA Tricarb instrument (Packard). Conversion of the measured cpm into dpm was carried out with the aid of a standard quench series.
as §4, with “^125I-AVP” for “^3H-AVP”, “hV1a” for “human V1b”, “was determined in saturation experiments. A Kd of 1.33” for “is 0.4”, “nM” for “nM and”

[3] = biological target: T3, human oxytocin receptors (Homo sapiens, UniProt P30559); experiment: Oxytocin receptor binding assay; conditions: selectivity quotient
T3 construct: expressed in transfected cells; host or cells: HEK-293, transient expression; lysed and homogenized cells
T3 sequence (P30559 1-389): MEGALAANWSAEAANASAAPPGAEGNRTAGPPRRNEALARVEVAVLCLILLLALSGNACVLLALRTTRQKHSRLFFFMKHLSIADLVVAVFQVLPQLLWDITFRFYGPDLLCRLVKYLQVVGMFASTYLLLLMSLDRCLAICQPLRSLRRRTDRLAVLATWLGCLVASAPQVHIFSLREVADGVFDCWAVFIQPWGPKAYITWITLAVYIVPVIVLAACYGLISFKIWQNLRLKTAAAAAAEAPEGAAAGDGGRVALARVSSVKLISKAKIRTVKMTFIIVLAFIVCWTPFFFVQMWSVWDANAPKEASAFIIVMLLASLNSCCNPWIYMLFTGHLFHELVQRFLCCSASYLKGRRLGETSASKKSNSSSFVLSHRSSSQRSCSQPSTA
Experimental: 4. Oxytocin Receptor Binding Assay
The substances were dissolved in a concentration of 10^−2 M in DMSO and diluted with incubation buffer (50 mM Tris, 10 mM MgCl2, 0.1% BSA, pH 7.4).
Confluent HEK-293 cells with transiently expressing recombinant human oxytocin receptors were centrifuged at 750×g at room temperature for 5 minutes. The residue was taken up in ice-cold lysis buffer (50 mM Tris-HCl, 10% glycerol, pH 7.4 and Roche complete protease inhibitor) and subjected to an osmotic shock at 4° C. for 20 minutes. The lyzed cells were then centrifuged at 750×g at 4° C. for 20 minutes, the residue was taken up in incubation buffer, and aliquots of 10^7 cells/ml were prepared. The aliquots were frozen at −80° C. until used.
On the day of the experiment, the cells were thawed, diluted with incubation buffer and homogenized using a Multipette Combitip (Eppendorf, Hamburg). The reaction mixture of 0.250 ml was composed of 2 to 5×10^4 recombinant cells, 3-4 nM ^3H-oxytocin (PerkinElmer, NET 858) in the presence of test substance (inhibition plot) or only incubation buffer (total binding). The nonspecific binding was determined with 10^−6 M oxytocin (Bachem AG, H2510). Triplicate determinations were set up. Bound and free radioligand were separated by filtration under vacuum with Whatman GF/B glass fiber filters with the aid of a Skatron cell harvester 7000. The bound radioactivity was determined by liquid scintillation measurement in a Tricarb Beta counter, model 2000 or 2200CA (Packard).
The binding parameters were calculated by nonlinear regression analysis (SAS) in analogy to the LIGAND program of Munson and Rodbard (Analytical Biochem 1980; 107: 220-239). The Kd of ^3H-oxytocin for the recombinant hOT receptors is 7.6 nM and was used to determine the Ki.

Row | Structure (SMILES) | Ki [1] [nM] | Ki(h − V1a)/Ki(h − V1b)* [2] | Ki(h − OT)/Ki(h − V1b)* [3]
1 | CCOc1ncccc1C1(NC(=O)N2CCN(C3CCN(C)CC3)CC2)C(=O)N(S(=O)(=O)c2ccc(OC)cc2OC)c2cc(F)c(C#N)cc21 (stereo not drawn) [Example 1, 4-(1-Methylpiperidin-4-yl)piperazin-1-[5-cyano-1-(2,4-dimethoxyphenylsulfonyl)-3-(2-ethoxypyridin-3-yl)-6-fluoro-2-oxo-2,3-dihydro-1H-indol-3-yl]carboxamide] | < 1 | +++ (>75) | +++ (>75)
2 | CCOc1ncccc1C1(NC(=O)N2CCN(C3CCN(CC)CC3)CC2)C(=O)N(S(=O)(=O)c2ccc(OC)cc2OC)c2cc(F)c(C#N)cc21 (stereo not drawn) [Example 2, 4-(1-Ethylpiperidin-4-yl)piperazine-1-[5-cyano-1-(2,4-dimethoxyphenylsulfonyl)-3-(2-ethoxypyridin-3-yl)-6-fluoro-2-oxo-2,3-dihydro-1H-indol-3-yl]carboxamide] | < 1 | +++ (>75) | +++ (>75)
3 | CCOc1ncccc1C1(NC(=O)N2CCC(N3CCN(C)CC3)CC2)C(=O)N(S(=O)(=O)c2ccc(OC)cc2OC)c2cc(F)c(C#N)cc21 (stereo not drawn) [Example 3, 4-(4-Methylpiperazin-1-yl)piperidine-1-[5-cyano-1-(2,4-dimethoxyphenylsulfonyl)-3-(2-ethoxypyridin-3-yl)-6-fluoro-2-oxo-2,3-dihydro-1H-indol-3-yl]carboxamide] | < 1 | ++ (25-75) | +++ (>75)
4 | CCOc1ncccc1C1(NC(=O)N2CCC(N3CCN(CC)CC3)CC2)C(=O)N(S(=O)(=O)c2ccc(OC)cc2OC)c2cc(F)c(C#N)cc21 (stereo not drawn) [Example 4, 4-(4-Ethylpiperazin-1-yl)piperidine-1-[5-cyano-1-(2,4-dimethoxyphenylsulfonyl)-3-(2-ethoxypyridin-3-yl)-6-fluoro-2-oxo-2,3-dihydro-1H-indol-3-yl]carboxamide] | < 1 | ++ (25-75) | +++ (>75)
5 | CCOc1ncccc1C1(NC(=O)N2CCN(C3CCN(C)CC3)CC2)C(=O)N(S(=O)(=O)c2ccc(OC)cc2)c2cc(F)c(C#N)cc21 (stereo not drawn) [Example 5, 4-(1-Methylpiperidin-4-yl)piperazine-1-[5-cyano-3-(2-ethoxypyridin-3-yl)-6-fluoro-1-(4-methoxyphenylsulfonyl)-2-oxo-2,3-dihydro-1H-indol-3-yl]carboxamide] | 1 to 10 | +++ (>75) | +++ (>75)
6 | CCOc1ncccc1C1(NC(=O)N2CCN(C3CCN(CC)CC3)CC2)C(=O)N(S(=O)(=O)c2ccc(OC)cc2)c2cc(F)c(C#N)cc21 (stereo not drawn) [Example 6, 4-(1-Ethylpiperidin-4-yl)piperazine-1-[5-cyano-3-(2-ethoxypyridin-3-yl)-6-fluoro-1-(4-methoxyphenylsulfonyl)-2-oxo-2,3-dihydro-1H-indol-3-yl]carboxamide] | 1 to 10 | +++ (>75) | +++ (>75)
7 | CCOc1ncccc1C1(NC(=O)N2CCC(N3CCN(C)CC3)CC2)C(=O)N(S(=O)(=O)c2ccc(OC)cc2)c2cc(F)c(C#N)cc21 (stereo not drawn) [Example 7, 4-(4-Methylpiperazin-1-yl)piperidine-1-[5-cyano-3-(2-ethoxypyridin-3-yl)-6-fluoro-1-(4-methoxyphenylsulfonyl)-2-oxo-2,3-dihydro-1H-indol-3-yl]carboxamide] | 1 to 10 | + (10-<25) | +++ (>75)
8 | CCOc1ncccc1C1(NC(=O)N2CCC(N3CCN(CC)CC3)CC2)C(=O)N(S(=O)(=O)c2ccc(OC)cc2)c2cc(F)c(C#N)cc21 (stereo not drawn) [Example 8, 4-(4-Ethylpiperazin-1-yl)piperidine-1-[5-cyano-3-(2-ethoxypyridin-3-yl)-6-fluoro-1-(4-methoxyphenylsulfonyl)-2-oxo-2,3-dihydro-1H-indol-3-yl]carboxamide] | 1 to 10 | ++ (25-75) | +++ (>75)
